Source: patent publication US6747135B1, “Fluorescent dye binding peptides” (The Board of Trustees for the Leland Stanford Junior …, priority 1998, dated 2004)
“Also recorded” adds a separate entry of the source.

Columns and labels:
[1] = Peptide-Texas Red binding in solution, excitation and emission spectra; settings: for changes in peak excitation or emission: concentrated peptide with 50 nM Texas Red; for peak emission shift / peak excitation shift: 10 μM peptide, 50 nM Texas Red, TBS, 1 hr RT
Experimental: FIGS. 5A and 5B. Peptide—Texas Red binding. Excitation and emission spectra. Peptides at the noted concentrations were incubated with Texas Red (50 nM), or without, in 0.6 ml of TBS for 1 hr at room temperature (RT). Samples were scanned on a spectrofluorimeter (SPEX Fluoromax (Jobin Yvon-SPEX Instruments Co.)). Excitation and excitation/emission peak shifts for PepTR401(10 μM)/Texas Red and PepTRS311 (10 μM)/Texas Red complexes, respectively (A), were reproducible in three independent experiments. The results of a single experiment are presented.
(§1) The above test only checks for bound dye that remains fluorescent at the wavelengths tested. Binding of fluorophore dyes to specific peptides might result in changes in the fluorescence spectra of bound dye versus the spectra of free dye. Or, one might observe an increase or quenching of fluorescence. We mixed concentrated peptide with 50 nM of the corresponding dye in solution and determined the excitation and emission spectra of the resulting mixture.
We attempted with these findings to obtain an affinity measurement for the higher affinity TRS311 peptide. Peptides in different concentrations (1.3-20 μM) were incubated with Texas Red (50 nM) in 0.6 ml of TBS buffer for 1 hr at RT. Excitation and emission spectra of samples were obtained by using spectrofluorimeter SPEX Fluoromax (Jobin Yvon-SPEX Instruments Co.) and DataMax software package. Peak positions were automatically calculated by software. List mode data was saved for other analyses.

[2] = Dye binding to peptide-coated cobalt Sepharose beads, fluorescence microscopy; settings: 0.5 μM Texas Red in TBS, 1 hr, RT
Experimental: FIG. 6. Texas Red-specific peptide PepTR401 (Panel A), PepTRS311 (Panel B), PepTR406 (Panel C) and nonspecific PepControl (Panel D) (see peptide sequences in Table 4) were bound via His6 tag to cobalt ion-containing Sepharose beads. The peptide coated beats were washed and incubated with 0.5 micromolar Texas Red in TBS for 1 hour at room temperature followed by several washings of beads in order to remove unbound dye. Fluorescent and nonflourescent control beads were photographed on fluorescent microscope Axiophot (Zeiss) using Rhodamine Red/Texas Red filter with the same time exposure for every sample. All binding experiments were accomplished in three parallels and results of a single experiments are shown.
Peptides were bound to cobalt ion-coated Sepharose beads and the resultant peptide-coated beads were incubated with corresponding fluorophore dyes, washed, and visualized for dye binding. The same amounts of Texas Red-specific peptides PepTR401, PepTRS311, PepTR406 as well as nonspecific peptide PepControl (see Table 4) were bound via His6 tag to the TALON Metal Affinity Resin (Clontech) in TBS buffer essentially as described by manufacturer's protocol. Beads (5 μl) were washed twice with 0.5 ml TBS to remove unbound peptide and incubated with 0.5 μM Texas Red in 40 μl of TBS buffer for 1 hr at RT. Finally, the beads were washed three times with 0.3 ml TBS to remove unbound dye. Fluorescent and nonfluorescent control beads were photographed with 10-fold magnification on fluorescent microscope Axiophot (Zeiss) using Rhodamine Red/Texas Red filter with 5″ exposure.

[3] = Binding affinity of phage clones carrying SKVILFE-flanked fluorettes; settings: phage clone, SKVILFE-flanked fluorette
[4] = Phage binding to Oregon Green 514 carrier beads, plaque assay of bound phage; settings: for Kd: phage clone, Oregon Green 514 carrier beads
Experimental: (§2) These mutations may be important for increasing the overall affinity of the peptide fluorette-fluorophore interaction. We tested one of each of the phage from the secondary screens for increases in avidity (Table 3). PEG-purified TR401 phage, TRS311 phage or the amplified Ph.D.-12 phage display peptide library phage as a negative control (input 1.5×10^8-1.1×10^10 pfu with 2 to 5-fold increments) were incubated with 23.5 μl of BSA-blocked and washed Texas Red carrier beads in binding buffer (see above) in total volume 40 μl for 3 hr. Beads suspensions were centrifuged, the supernatants (unbound phage) were titrated and dissociation constants were measured via a standard linear Scatchard plot. For TR401 and TRS311 phage bound/unbound ratios were quite reliable (6.3-13.1 in the range of phage concentrations shown above). All binding experiments were performed in duplicate and titrations were performed in triplicate. […] For higher Kd, bound/unbound ratios became unreliable (=1).
(§3) Other PEG-purified phage (input 5×10^8-2.5×10^10 pfu with 2 to 5-fold increments) were bound to the respective fluorophore dye carriers essentially in the same manner as described above for Texas Red-specific phage. RhR401 and RhRS308, OG403 and OGS316, OG402 and FluS303 phage, were bound to the Rhodamine Red, Oregon Green 514 or Fluorescein carriers, respectively. Following binding the beads were quickly washed twice by 0.25 ml of TBS+0.1% Tween-20 and suspended in 10 ml TBS. 10 μl of suspension was mixed with ^−2×10^8 log-phase ER2537 cells and incubated 1 hr at 4° C. with slight shaking to allow phage adsorption. Several ten-fold dilutions of infected cells were mixed with noninfected ER2537 cells and plated in standard plaque assay (Sambrook et al., supra). All binding experiments and titrations were accomplished in duplicate. […] For all above phage pfu/particle ratio was in the range 0.4-0.5.

[5] = Phage-free fluorophore dye binding in solution (PEG precipitation, filter scan); settings: vs unselected library phage
Description: FIG. 3. Phage-fluorophore dye binding. Fluorophore dye-specific OG403, OG402, RhR401 and TR401 phage were bound to Oregon Green 514, Fluorescein, Rhodamine Red and Texas Red “free” dyes, respectively (see text). The normalized particle amounts of amplified Ph.D.-12 phage display peptide library (nonspecific phage) were bound in solution with the same dyes as controls. Phage-fluorophore dye complexes were precipitated three times by PEG to remove unbound dye and spotted to a nitrocellulose filter. The filter was scanned on the Storm 840 scanner (Molecular Dynamics). The presented data is from a single scan and image enhancements were done simultaneously on the complete set of dye binding results using NIH Image 1.59 software. Specific/nonspecific signal ratios were quantified by densitometry of spot images using NIH Image 1.59 software (see Materials and Methods for details). All binding experiments shown were completed in duplicate. Densitometry was carried out prior to contrast enhancement. Brightness and contrast values were modified to 50 and 65, respectively in Adobe Photoshop. Individual elements of the figure were arranged as a composite from the same original scan from which the binding ratios were determined.
Four activated derivatives of fluorophore dyes (see above) were quenched in 0.5M Tris-HCl, pH 8.7 and used as “free” dyes. Ten μl of PEG-purified and 300-fold concentrated phage TR401, RhR401, OG402, OG403 (1.3-1.8×10^12 phage particles; calculated from optical densities of the purified phage at 260 and 280 nm) in TBS+0.05% sodium azide buffer were separately mixed with an equal volume of 20 μM solution of the corresponding free dyes in the same buffer; mixtures were adjusted by Tween-20 to 0.1% and incubated for 3 hr. Phage-fluorophore dye complexes were precipitated three times by PEG-8000 in order to remove unbound dye and dissolved in 6.6 μl of TBS+0.05% sodium azide buffer. Finally, phage-fluorophore dye complexes (1 μl of each) were spotted to nitrocellulose filter and filter was scanned on the Storm 840 scanner (Molecular Dynamics) in Blue Fluorescence/Chemifluorescence mode with 200 μ pixel resolution. To determine nonspecific binding the normalized amounts of phage particles of amplified, unselected, and PEG-purified Ph.D.-12 phage display peptide library were separately incubated with the corresponding free dyes and treated in the same conditions. All binding experiments were accomplished in duplicate. Specific/nonspecific signal ratios were quantified by densitometry of spot images using “Measure” option of NIH Image 1.59 freeware package.

[6] = Phage binding to Rhodamine Red carrier beads, plaque assay of bound phage; settings: for Kd: phage clone, Rhodamine Red carrier beads
Experimental: as §2, §3

[7] = Cross-binding of Rhodamine Red-selected phage to the inappropriate dye carrier; settings: RhR-4 phage on Texas Red carrier, vs nonspecific phage background
Description: (§4) We tested the binding specificity and excluded the possibility that the TR401 and RhR401 phage were selected against the polymer linker moiety rather than a fluorophore dye moiety of the dye carriers. The TR-4 and RhR-4 phage were cross-bound to Rhbdamine Red and Texas Red carriers, respectively. […] Thus the TR401 and RhR401 fluorettes are specific by this comparison for their respective conjugated dyes, despite the similarity of the compound core ring structures. Second, they had affinity for the corresponding conjugated fluorophore dyes rather than only a polymer linker moiety of Texas Red and Rhodamine Red carriers or other chemical features of the carriers themselves.

[8] = Dye binding to peptide-coated cobalt Sepharose beads, fluorescence microscopy; settings: Oregon Green 514
[9] = as above; settings: Fluorescein
[10] = Peptide-Fluorescein binding in solution, excitation and emission spectra; settings: peptide with 50 nM Fluorescein
Experimental: as §1

[11] = Phage direct binding to Texas Red carrier beads, Scatchard plot; settings: phage clone (5 pIII-fluorette copies, avidity), 3 hr
Experimental: as §2

[12] = Cross-binding of Texas Red-selected phage to the inappropriate dye carrier; settings: TR-4 phage on Rhodamine Red carrier, vs nonspecific phage background
Description: as §4

[13] = Phage binding to Fluorescein carrier beads, plaque assay of bound phage; settings: for Kd: phage clone, Fluorescein carrier beads
Experimental: as §2, §3

[14] = Binding affinity of synthetic constrained peptides to Texas Red; settings: for Kd: synthetic SKVILFE-flanked peptide; for fold more avid than linear TR401 and TRS311 peptides: synthetic constrained vs linear peptides

With “ASGSGASGSAGSGGGSAETVGGGHHHHHH [control peptide, reference compound]” the “changes in peak excitation or emission” value [1] was “No detectable changes”.

In the case of “DFLOWKLAROKPGGGSAETVGGGHHHHHH (DFLQWKLARQKPGGGSAETVGGGHHHHHH; fluorette) [PepTR406]”, the “dye binding to peptide-coated beads” value [2] is reported as “did not bind” and the “changes in peak excitation or emission” value [1] is reported as “No detectable changes”.

For EPMARPWERKQDR [TRP527], the Kd [3] was > 5 nM.

With GNQKCLQHNRCST [TRP518] the Kd [3] was > 5 nM.

With GTLSATRPYGRQW [TRP541] the Kd [3] was > 5 nM.

In the case of HEWEYYWDWTAW [OGS316], the “Affinity increase (fold)” value ([4]; mutant fluorette phage vs parental OG403 phage) is reported as 2.7 fold and the Kd [4] is reported as 2.4 nM.

In the case of HGWDYYWDWTAW [OG403], the Kd [4] is reported as 6.4 nM and the “phage binding of free fluorophore dye in solution” value ([5]; free Oregon Green 514, 3 hr) is reported as “specifically bound”.

In the case of IPHPPMYWTRVF [RhR401], the Kd [6] is reported as 23 nM, the “binding specificity, cross-binding to inappropriate dye carrier” value [7] is reported as “specific” and the “phage binding of free fluorophore dye in solution” value ([5]; free Rhodamine Red, 3 hr) is reported as “specifically bound”.

For IPHRPMYWTPVF [RhRS308], the “Affinity increase (fold)” value ([6]; mutant fluorette phage vs parental RhR401 phage) was “not even marginally improved; also recorded: no increase” and the Kd [6] was 21.5 nM.

For “KHVOYWTOMFYSGGGSAETVGGGHHHHHH (KHVQYWTQMFYSGGGSAETVGGGHHHHHH; fluorette) [PepTR401]”, the “dye binding to peptide-coated beads” value [2] was “significant binding”, the “dye binding to peptide-coated beads” value [8] was “bound to neither Oregon Green 514 nor Fluorescein” and the “dye binding to peptide-coated beads” value [9] was “bound to neither Oregon Green 514 nor Fluorescein”. For the same substance, the peak emission shift [1] was “no emission shift change”, the peak excitation shift [1] was “+1.9 nm” and the “shift in Fluorescein excitation or emission spectra” value [10] was “no shift”.

In the case of KHVQYWTQMFYS [TR401], the Kd [11] is reported as 0.27 nM, the “binding specificity, cross-binding to inappropriate dye carrier” value [12] is reported as “specific” and the “phage binding of free fluorophore dye in solution” value ([5]; free Texas Red, 3 hr) is reported as “specifically bound”.

For “KPVOYWTOMFYTGGGSAETVGGGHHHHHH (KPVQYWTQMFYTGGGSAETVGGGHHHHHH; fluorette) [PepTRS311]”, the “dye binding to peptide-coated beads” value [2] was “significant binding”, the “dye binding to peptide-coated beads” value [8] was “bound to neither Oregon Green 514 nor Fluorescein” and the “dye binding to peptide-coated beads” value [9] was “bound to neither Oregon Green 514 nor Fluorescein”. For the same substance, the peak emission shift [1] was 1.4 nm, the peak excitation shift [1] was “~+2.8 nm” and the Kd ([1]; calculated roughly from peak shifts, peptide 1.3-20 μM, Texas Red 50 nM, read-out: affinity of the peptide for the fluorophore) was 100 to 500 nM. For the same substance, the “change in peak excitation position on reducing peptide concentration” value ([1]; peptide from 10 μM to 1.3 μM, Texas Red 50 nM) was “reduced slightly, but not completely”.

Substance KPVQYWTQMFYT [TRS311] has a Kd [11] of 0.09 nM.

With RTIWEPKEASNHT [TRP501] the Kd [3] was 0.08 nM.

RWTWEPISE [TRP512] gave a Kd [3] of 0.025 nM.

With SQTWSFPEH [TRP526] the Kd [3] was > 5 nM.

In the case of WSKMGHTVT [TRP505], the Kd [3] is reported as > 5 nM.

For YPNDFEWWEYYF [OG402], the Kd [13] was 17.4 nM and the “phage binding of free fluorophore dye in solution” value ([5]; free Fluorescein, 3 hr) was “specifically bound”.

For YPNEFDWWDYYY [FluS303], the “Affinity increase (fold)” value ([13]; mutant fluorette phage vs parental OG402 phage) was 6.5 fold and the Kd [13] was 2.7 nM.

With “synthetic SKVILFE-flanked Texas Red-specific peptide with His6 tag (SEQ ID NO:120) (GGGSKVILFEGPAGRTIWEPKEASNHTGAPGSKVILFEGGPGHHHHHH) [TRP501 peptide]” the Kd [14] was ~200 nM and the “fold more avid than linear TR401 and TRS311 peptides” value [14] was “≈ 8 fold”.

With “synthetic SKVILFE-flanked Texas Red-specific peptide with His6 tag (SEQ ID NO:121) (GGGSKVILFEGPAGRWTWEPISEGAPGSKVILFEGGPGHHHHHH) [TRP512 peptide]” the Kd [14] was ~10 nM and the “fold more avid than linear TR401 and TRS311 peptides” value [14] was “≈ 160 fold”.
